# Source: ChEMBL document CHEMBL3352625, “Development of novel neurokinin 3 receptor (NK3R) selective agonists with resistance to proteolytic degradation” (J Med Chem, 2014)
# The source made the active and inactive calls. The calls are words filed in the database; no cut-off is given here. *1 amine or outer side, *2 acyl side, *3 side chain or, on linkers, in order; H or OH if unused. Where a SMILES comes first, the peptide text is derived from it. [ ]: non-standard residue; d: D form. Glyψ(E-CHCH)Leu = CC(C)C[C@H](/C=C/CN[*:1])C(=O)[*:2]; X4 = CC(C)C[C@H](N/C(CN[*:1])=N\O)C(=O)[*:2]; X3 = CC(C)C[C@H](NC(=N)CN[*:1])C(=O)[*:2]; X1 = CC(C)C[C@H](CCCN[*:1])C(=O)[*:2]; X2 = CC(C)C/C(=C\CCN[*:1])C(=O)[*:2]; NMeF = CN[C@@H](Cc1ccccc1)C(=O)O; Suc = O=C(CCC(=O)[*:2])[*:1]
# Legend:
# Neuromedin-K receptor [1] = biological target: T1, Neuromedin-K receptor (Homo sapiens, UniProt P29371); test: Displacement of [125I]His3, MePhe7 from human NK3R expressed in CHO cell membranes by scintillation counting
# T1 sequence (P29371 whole entry): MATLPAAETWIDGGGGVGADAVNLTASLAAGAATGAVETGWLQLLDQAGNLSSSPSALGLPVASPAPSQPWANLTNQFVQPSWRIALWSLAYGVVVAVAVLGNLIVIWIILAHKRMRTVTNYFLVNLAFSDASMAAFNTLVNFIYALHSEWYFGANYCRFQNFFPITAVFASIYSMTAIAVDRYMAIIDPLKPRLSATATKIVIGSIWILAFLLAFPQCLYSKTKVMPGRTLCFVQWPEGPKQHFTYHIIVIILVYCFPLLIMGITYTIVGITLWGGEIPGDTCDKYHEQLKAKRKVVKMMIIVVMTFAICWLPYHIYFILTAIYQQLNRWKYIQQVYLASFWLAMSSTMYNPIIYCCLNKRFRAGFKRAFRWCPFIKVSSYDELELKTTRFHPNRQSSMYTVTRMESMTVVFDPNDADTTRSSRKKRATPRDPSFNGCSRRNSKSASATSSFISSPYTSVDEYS
# Neuromedin-K receptor [2] = biological target: T1, Neuromedin-K receptor; test: Agonist activity at human NK3R expressed in CHO cells assessed as potentiation of senktide-induced effect; type: cell-based
# Neuromedin-K receptor [3] = biological target: T2, Neuromedin-K receptor (Rattus norvegicus, UniProt P16177); test: Agonist activity at rat NK3R
# T2 sequence (P16177 whole entry): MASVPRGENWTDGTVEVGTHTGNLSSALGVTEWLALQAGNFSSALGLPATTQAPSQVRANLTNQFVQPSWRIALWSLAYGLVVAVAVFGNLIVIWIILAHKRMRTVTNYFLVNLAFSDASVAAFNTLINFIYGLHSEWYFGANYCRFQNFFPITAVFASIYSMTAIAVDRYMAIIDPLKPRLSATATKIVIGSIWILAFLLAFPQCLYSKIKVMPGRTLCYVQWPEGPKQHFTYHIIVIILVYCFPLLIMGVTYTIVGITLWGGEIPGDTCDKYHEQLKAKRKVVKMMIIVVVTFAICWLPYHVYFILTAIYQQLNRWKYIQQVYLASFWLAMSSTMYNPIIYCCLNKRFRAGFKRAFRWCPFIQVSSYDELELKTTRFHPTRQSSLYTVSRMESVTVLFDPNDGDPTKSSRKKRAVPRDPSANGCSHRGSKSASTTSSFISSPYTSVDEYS
# [4] = Agonist activity at cattle NK3R; parameters: species or system Bos taurus
# [5] = Agonist activity at goat NK3R; parameters: species or system Capra hircus
# [6] = Induction of GnRH release in ovariectomized goat assessed as induction of multiple-unit activity volley measured as duration of effect at 200 nmol, iv as single dose; type: functional, Capra hircus
# Neuromedin-K receptor [7] = biological target: T1, Neuromedin-K receptor; test: (§1) Agonist activity at human NK3R expressed in CHO cells assessed as induction of Ca2+ influx […]; type: functional, cell-based
# [8] = biological target: Substance-P receptor (Homo sapiens) (UniProt P25103); test: Displacement of [125I]-BH-SP from human NK1R expressed in CHO cell membranes at 10 uM by scintillation counting
# [9] = biological target: T3, Substance-K receptor (Homo sapiens) (UniProt P21452); test: Displacement of [125I]-NKA from […] expressed in CHO cell membranes at 10 uM by scintillation counting
# T3 sequence (whole entry): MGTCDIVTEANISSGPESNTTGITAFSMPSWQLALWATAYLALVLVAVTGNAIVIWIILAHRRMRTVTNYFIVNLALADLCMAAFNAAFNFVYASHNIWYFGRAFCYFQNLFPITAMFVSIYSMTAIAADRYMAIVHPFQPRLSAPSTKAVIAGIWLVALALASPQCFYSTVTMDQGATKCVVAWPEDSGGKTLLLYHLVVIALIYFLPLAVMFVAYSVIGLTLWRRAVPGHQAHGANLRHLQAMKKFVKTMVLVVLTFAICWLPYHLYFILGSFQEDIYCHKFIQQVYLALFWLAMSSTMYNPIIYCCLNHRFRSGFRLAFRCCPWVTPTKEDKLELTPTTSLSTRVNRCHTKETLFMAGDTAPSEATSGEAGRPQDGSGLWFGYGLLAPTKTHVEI
# [10] = biological target: T4, Neuromedin-K receptor (Homo sapiens) (UniProt P29371); test: as §1; type: functional, cell-based
# T4 sequence (whole entry): T1 sequence (P29371 whole entry)
# Serum [11] = test: Drug metabolism in cattle serum assessed as peptide H-His-Asp-Phe-Phe-MePhe-Gly-Leu-Met-NH2 formation by HPLC analysis; type: ADME, cell-free, Bos taurus
# Serum [12] = test: Drug metabolism in cattle serum assessed as peptide H-Asp-Phe-Phe-MePhe-Gly-Leu-Met-NH2 formation by HPLC analysis; type: ADME, cell-free, Bos taurus
# Serum [13] = test: Drug metabolism in cattle serum assessed as peptide H-Phe-MePhe-Gly-Leu-Met-NH2 formation by HPLC analysis; type: ADME, cell-free, Bos taurus
# [14] = Drug metabolism in pig serum assessed as peptide H-His-Asp-Phe-Phe-MePhe-Gly-Leu-Met-NH2 formation by HPLC analysis; type: ADME, cell-free, Sus scrofa
# [15] = Drug metabolism in pig serum assessed as peptide H-Asp-Phe-Phe-MePhe-Gly-Leu-Met-NH2 formation by HPLC analysis; type: ADME, cell-free, Sus scrofa
# [16] = Drug metabolism in pig serum assessed as peptide H-Phe-MePhe-Gly-Leu-Met-NH2 formation by HPLC analysis; type: ADME, cell-free, Sus scrofa
# [17] = Drug metabolism in goat serum assessed as peptide H-His-Asp-Phe-Phe-MePhe-Gly-Leu-Met-NH2 formation by HPLC analysis; type: ADME, cell-free, Capra hircus
# [18] = Drug metabolism in goat serum assessed as peptide H-Asp-Phe-Phe-MePhe-Gly-Leu-Met-NH2 formation by HPLC analysis; type: ADME, cell-free, Capra hircus
# [19] = Drug metabolism in goat serum assessed as peptide H-Phe-MePhe-Gly-Leu-Met-NH2 formation by HPLC analysis; type: ADME, cell-free, Capra hircus
# Serum [20] = test: Drug metabolism in rat serum assessed as H-His-Asp-Phe-Phe-MePhe-Gly-Leu-Met-NH2 2 formation by HPLC analysis; type: ADME, cell-free
# Serum [21] = test: Drug metabolism in rat serum assessed as peptide H-Asp-Phe-Phe-MePhe-Gly-Leu-Met-NH2 formation by HPLC analysis; type: ADME, cell-free
# Serum [22] = test: Drug metabolism in rat serum assessed as peptide H-Phe-MePhe-Gly-Leu-Met-NH2 formation by HPLC analysis; type: ADME, cell-free
# Serum [23] = test: Drug metabolism in rat serum assessed as peptide H-Phe-MePhe-Gly-Leu-Met-OH formation by HPLC analysis; type: ADME, cell-free
# [24] = Drug metabolism in pig hypothalamic extract assessed as peptide H-Phe-MePhe-Gly-Leu-Met-NH2 formation by HPLC analysis; type: ADME, Sus scrofa, Hypothalamus
# [25] = Drug metabolism in pig hypothalamic extract assessed as peptide H-Phe-MePhe-Gly-Leu-Met-OH formation by HPLC analysis; type: ADME, Sus scrofa, Hypothalamus
# [26] = Drug metabolism in pig hypothalamic extract assessed as peptide H-Phe-MePhe-Gly-OH formation by HPLC analysis; type: ADME, Sus scrofa, Hypothalamus
# [27] = Drug metabolism in pig hypothalamic extract assessed as peptide H-Met-His-Asp-Phe-Phe-MePhe-Gly-Leu-Met-NH2 formation by HPLC analysis; type: ADME, Sus scrofa, Hypothalamus
# [28] = Drug metabolism in pig hypothalamic extract assessed as peptide H-His-Asp-Phe-Phe-MePhe-Gly-Leu-Met-NH2 formation by HPLC analysis; type: ADME, Sus scrofa, Hypothalamus
# [29] = Drug metabolism in pig hypothalamic extract assessed as peptide H-Asp-Phe-Phe-MePhe-Gly-Leu-Met-NH2 formation by HPLC analysis; type: ADME, Sus scrofa, Hypothalamus
# [30] = Drug metabolism in pig hypothalamic extract assessed as peptide H-Phe-Phe-MePhe-Gly-Leu-Met-NH2 formation by HPLC analysis; type: ADME, Sus scrofa, Hypothalamus
# Chain of Substance-P receptor (Homo sapiens) (P25103 whole entry): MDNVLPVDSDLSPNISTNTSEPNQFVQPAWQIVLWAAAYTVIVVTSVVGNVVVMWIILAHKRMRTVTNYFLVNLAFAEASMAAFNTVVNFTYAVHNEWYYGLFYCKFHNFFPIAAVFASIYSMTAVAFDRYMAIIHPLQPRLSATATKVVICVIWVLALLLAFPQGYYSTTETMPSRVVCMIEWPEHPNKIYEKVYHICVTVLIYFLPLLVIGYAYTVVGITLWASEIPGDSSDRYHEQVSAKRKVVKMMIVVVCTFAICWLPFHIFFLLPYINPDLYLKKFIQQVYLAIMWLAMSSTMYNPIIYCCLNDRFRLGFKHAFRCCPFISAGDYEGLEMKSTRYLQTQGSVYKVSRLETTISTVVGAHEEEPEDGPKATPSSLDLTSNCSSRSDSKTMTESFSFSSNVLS
IC50 (Neuromedin-K receptor [1]) [nM],EC50 (Neuromedin-K receptor [2]) [nM],EC50 (Neuromedin-K receptor [7]) [nM],inhibition [8] [%],inhibition [9] [%],SMILES,other results
13000,1900,–,–,–,CSCC[C@H](NC(=O)/C(=C/CCNC(=O)[C@H](Cc1ccccc1)N(C)C(=O)[C@H](Cc1ccccc1)NC(=O)[C@H](CC(=O)O)NC(=O)CCC(=O)O)CC(C)C)C(N)=O (Suc-DF[NMeF][X2]M-NH2),–
19000,920,–,–,–,CSCC[C@H](NC(=O)[C@@H](CCCNC(=O)[C@H](Cc1ccccc1)N(C)C(=O)[C@H](Cc1ccccc1)NC(=O)[C@H](CC(=O)O)NC(=O)CCC(=O)O)CC(C)C)C(N)=O (Suc-DF[NMeF][X1]M-NH2),–
56,16,–,–,–,CSCC[C@H](NC(=O)[C@@H](/C=C/CNC(=O)[C@H](Cc1ccccc1)N(C)C(=O)[C@H](Cc1ccccc1)NC(=O)[C@H](CC(=O)O)NC(=O)CCC(=O)O)CC(C)C)C(N)=O (Suc-DF[NMeF][Glyψ(E-CHCH)Leu]M-NH2),EC50 (Neuromedin-K receptor [3]): 19 nM; EC50 [4]: 360 nM; EC50 [5]: 11 nM; Time [6]: 92.1 min
22,–,330,22,78,CSCC[C@H](NC(=O)[C@H](CC(C)C)NC(=O)CNC(=O)[C@H](Cc1ccccc1)N(C)C(=O)[C@H](Cc1ccccc1)NC(=O)[C@H](Cc1ccccc1)NC(=O)[C@H](CC(=O)O)NC(=O)[C@H](Cc1cnc[nH]1)NC(=O)[C@@H](N)CCSC)C(N)=O (H-MHDFF[NMeF]GLM-NH2),–
–,–,–,–,–,CN(C(=O)[C@H](Cc1ccccc1)NC(=O)[C@H](CC(=O)O)NC(=O)CCC(=O)O)[C@@H](Cc1ccccc1)C(=O)NCC(=O)O (Suc-DF[NMeF]G-OH),Activity [10]: inactive
59,–,91,15,73,CSCC[C@H](NC(=O)[C@H](CC(C)C)NC(=O)CNC(=O)[C@H](Cc1ccccc1)N(C)C(=O)[C@H](Cc1ccccc1)NC(=O)[C@H](Cc1ccccc1)NC(=O)[C@@H](N)CC(=O)O)C(N)=O (H-DFF[NMeF]GLM-NH2),–
2300,–,350,70,77,CSCC[C@H](NC(=O)[C@H](CC(C)C)NC(=O)CNC(=O)[C@H](Cc1ccccc1)N(C)C(=O)[C@@H](N)Cc1ccccc1)C(N)=O (H-F[NMeF]GLM-NH2),–
–,–,> 100000,–,–,CSCC[C@H](NC(=O)[C@H](CC(C)C)NC(=O)CNC(=O)[C@H](Cc1ccccc1)N(C)C(=O)[C@@H](N)Cc1ccccc1)C(=O)O (H-F[NMeF]GLM-OH),–
2900,–,240,49,84,CSCC[C@H](NC(=O)[C@H](CC(C)C)NC(=O)CNC(=O)[C@H](Cc1ccccc1)N(C)C(=O)[C@H](Cc1ccccc1)NC(=O)[C@@H](N)Cc1ccccc1)C(N)=O (H-FF[NMeF]GLM-NH2),–
–,–,> 100000,–,–,CN(C(=O)[C@@H](N)Cc1ccccc1)[C@@H](Cc1ccccc1)C(=O)NCC(=O)O (H-Phe-[NMeF]-Gly-OH),–
360,100,–,–,–,CSCC[C@H](NC(=O)[C@H](CC(C)C)NC(=N)CNC(=O)[C@H](Cc1ccccc1)N(C)C(=O)[C@H](Cc1ccccc1)NC(=O)[C@H](CC(=O)O)NC(=O)CCC(=O)O)C(N)=O (Suc-DF[NMeF][X3]M-NH2),–
12,–,64,–,–,CSCC[C@H](NC(=O)[C@H](CC(C)C)NC(=O)CNC(=O)[C@H](Cc1ccccc1)N(C)C(=O)[C@H](Cc1ccccc1)NC(=O)[C@H](Cc1ccccc1)NC(=O)[C@H](CC(=O)O)NC(=O)[C@H](Cc1cnc[nH]1)NC(=O)[C@H](CCSC)NC(=O)[C@@H](N)CC(=O)O)C(N)=O (H-DMHDFF[NMeF]GLM-NH2),Drug metabolism (Serum [11]): metabolite_detected; Drug metabolism (Serum [12]): metabolite_detected; Drug metabolism (Serum [13]): metabolite_detected; Drug metabolism [14]: metabolite_detected; Drug metabolism [15]: metabolite_detected; Drug metabolism [16]: metabolite_detected; Drug metabolism [17]: metabolite_detected; Drug metabolism [18]: metabolite_detected; Drug metabolism [19]: metabolite_detected; Drug metabolism (Serum [20]): metabolite_detected; Drug metabolism (Serum [21]): metabolite_detected; Drug metabolism (Serum [22]): metabolite_detected; Drug metabolism (Serum [23]): metabolite_detected; Drug metabolism [24]: metabolite_detected; Drug metabolism [25]: metabolite_detected; Drug metabolism [26]: metabolite_detected; Drug metabolism [27]: metabolite_notdetected; Drug metabolism [28]: metabolite_notdetected; Drug metabolism [29]: metabolite_notdetected; Drug metabolism [30]: metabolite_notdetected
43,–,280,18,74,CSCC[C@H](NC(=O)[C@H](CC(C)C)NC(=O)CNC(=O)[C@H](Cc1ccccc1)N(C)C(=O)[C@H](Cc1ccccc1)NC(=O)[C@H](Cc1ccccc1)NC(=O)[C@H](CC(=O)O)NC(=O)[C@@H](N)Cc1cnc[nH]1)C(N)=O (H-HDFF[NMeF]GLM-NH2),–
–,–,–,–,–,CSCC[C@H](NC(=O)[C@@H](N)CC(C)C)C(N)=O (H-Leu-Met-NH2),Activity [10]: inactive
1100,370,–,–,–,CSCC[C@H](NC(=O)[C@H](CC(C)C)N/C(CNC(=O)[C@H](Cc1ccccc1)N(C)C(=O)[C@H](Cc1ccccc1)NC(=O)[C@H](CC(=O)O)NC(=O)CCC(=O)O)=N\O)C(N)=O (Suc-DF[NMeF][X4]M-NH2),–
